Data: PMC11284802 (Journal of Medicinal Chemistry, 2024)

Assays:
[1] = system: mouse hepatitis virus (MHV); assay: MHV assay; assay type: cell-based
[2] = system: phosphorylation of CSNK2 substrate EIF2S2; assay: Inhibition of EIF2S2 phosphorylation in vitro; assay type: cell-based, human; settings: A549-ACE2 cells, 1 or 5 μM, 24 h
[3] = system: A549-ACE2 cells; assay: LDH cytotoxicity assay; assay type: cell-based, human; settings: concentrations below 10 μM
[4] = Plasma stability; assay type: in vitro ADME; settings: human plasma, 37 °C, 0 and 6 h
[5] = system: EIF2S2 (phospho-Ser2); assay: In vivo CSNK2 inhibition; parameters: species or system CD-1 mice; settings: 10 mg/kg i.p. b.i.d., 36 h, vs vehicle
[6] = system: AKT (phospho-Ser129); assay: In vivo CSNK2 inhibition; parameters: species or system CD-1 mice; settings: 10 mg/kg i.p. b.i.d., 36 h, vs vehicle
[7] = molecular target: T1, DYRK1A (Homo sapiens, UniProt Q13627); assay: NanoBRET dose-response, off-target kinase; assay type: cell-based; settings: poor assay window
[8] = molecular target: DAPK2 (Homo sapiens, UniProt Q9UIK4); assay: NanoBRET K192 panel; assay type: cell-based; settings: read-out: NanoBRET K192 % occupancy at 10 μM, DAPK2
Sequence of DAPK2 (Q9UIK4 whole entry): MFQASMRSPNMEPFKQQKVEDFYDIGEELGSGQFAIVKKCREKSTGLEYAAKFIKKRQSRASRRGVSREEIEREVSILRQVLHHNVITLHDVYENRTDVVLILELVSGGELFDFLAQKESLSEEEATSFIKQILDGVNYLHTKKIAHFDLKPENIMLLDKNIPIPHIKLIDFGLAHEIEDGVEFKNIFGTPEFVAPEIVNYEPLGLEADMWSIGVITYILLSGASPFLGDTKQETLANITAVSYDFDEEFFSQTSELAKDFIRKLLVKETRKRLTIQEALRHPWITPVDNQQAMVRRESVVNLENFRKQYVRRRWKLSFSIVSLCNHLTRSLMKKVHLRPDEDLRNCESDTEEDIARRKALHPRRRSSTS

[9] = molecular target: T2, HIPK4 (Homo sapiens, UniProt Q8NE63); assay: NanoBRET K192 panel; assay type: cell-based; settings: read-out: NanoBRET K192 % occupancy at 10 μM, HIPK4
T2 sequence (Q8NE63 1-616): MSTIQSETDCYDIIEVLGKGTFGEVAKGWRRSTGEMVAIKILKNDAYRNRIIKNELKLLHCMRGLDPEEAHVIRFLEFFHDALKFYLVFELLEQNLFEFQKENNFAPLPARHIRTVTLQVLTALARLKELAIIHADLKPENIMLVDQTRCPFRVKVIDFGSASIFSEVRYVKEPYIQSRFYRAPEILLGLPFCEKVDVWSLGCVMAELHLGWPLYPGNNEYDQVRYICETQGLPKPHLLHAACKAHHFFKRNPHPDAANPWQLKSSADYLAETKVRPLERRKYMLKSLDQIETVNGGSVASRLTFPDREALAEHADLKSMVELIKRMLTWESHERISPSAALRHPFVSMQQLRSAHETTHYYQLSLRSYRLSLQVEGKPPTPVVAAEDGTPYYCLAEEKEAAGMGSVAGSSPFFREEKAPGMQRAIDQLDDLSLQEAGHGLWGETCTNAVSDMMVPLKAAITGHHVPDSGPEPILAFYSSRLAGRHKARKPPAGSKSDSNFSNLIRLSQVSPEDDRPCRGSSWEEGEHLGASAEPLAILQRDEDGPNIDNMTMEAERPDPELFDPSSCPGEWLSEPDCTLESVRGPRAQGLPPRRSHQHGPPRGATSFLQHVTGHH

[10] = molecular target: CLK4 (Homo sapiens, UniProt Q9HAZ1); assay: NanoBRET K192 panel; assay type: cell-based; settings: read-out: NanoBRET K192 % occupancy at 10 μM, CLK4
Sequence of CLK4 (Q9HAZ1 whole entry): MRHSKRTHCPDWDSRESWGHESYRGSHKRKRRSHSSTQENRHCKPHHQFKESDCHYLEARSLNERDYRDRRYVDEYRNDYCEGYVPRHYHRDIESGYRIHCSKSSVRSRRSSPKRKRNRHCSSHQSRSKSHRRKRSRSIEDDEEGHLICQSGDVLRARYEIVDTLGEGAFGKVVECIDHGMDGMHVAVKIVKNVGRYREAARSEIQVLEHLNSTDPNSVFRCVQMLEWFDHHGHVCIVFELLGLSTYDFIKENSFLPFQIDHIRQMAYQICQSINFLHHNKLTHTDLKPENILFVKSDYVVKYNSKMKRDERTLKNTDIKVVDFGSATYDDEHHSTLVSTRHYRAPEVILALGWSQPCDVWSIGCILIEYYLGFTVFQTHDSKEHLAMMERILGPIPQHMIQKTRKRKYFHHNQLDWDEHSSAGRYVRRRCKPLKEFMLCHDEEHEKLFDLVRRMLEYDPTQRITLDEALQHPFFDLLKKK

[11] = molecular target: PHKG1 (Homo sapiens, UniProt Q16816); assay: NanoBRET K192 panel; assay type: cell-based; settings: read-out: NanoBRET K192 % occupancy at 10 μM, PHKG1
Sequence of PHKG1 (Q16816 whole entry): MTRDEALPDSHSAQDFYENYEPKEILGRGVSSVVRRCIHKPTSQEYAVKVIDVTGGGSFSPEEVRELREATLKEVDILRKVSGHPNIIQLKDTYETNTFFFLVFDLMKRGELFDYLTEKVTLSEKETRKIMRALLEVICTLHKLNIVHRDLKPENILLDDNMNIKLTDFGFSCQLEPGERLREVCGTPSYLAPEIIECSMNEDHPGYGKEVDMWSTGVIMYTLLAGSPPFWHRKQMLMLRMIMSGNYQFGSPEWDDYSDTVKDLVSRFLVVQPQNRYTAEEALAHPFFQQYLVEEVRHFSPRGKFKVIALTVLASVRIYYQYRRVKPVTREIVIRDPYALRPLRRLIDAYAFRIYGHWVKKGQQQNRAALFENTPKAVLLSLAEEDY

[12] = molecular target: T1, DYRK1A; assay: NanoBRET K192 panel; assay type: cell-based; settings: read-out: NanoBRET K192 % occupancy at 10 μM, DYRK1A
[13] = Mouse liver microsomal stability; assay type: in vitro ADME; settings: male, CD-1, mouse, liver microsomes, pH 7.4
[14] = Human liver microsomal CLint; assay type: in vitro ADME; settings: liver microsomes
[15] = Mouse hepatocyte stability; assay type: in vitro ADME; settings: male, CD-1, mouse, cryopreserved hepatocytes
[16] = Human hepatocyte stability; assay type: in vitro ADME; settings: cryopreserved hepatocytes

In the case of `CN[C@H]1CCCN(c2ccc(Nc3cc(NC4CC4)n4ncc(C#N)c4n3)cc2-n2cnnc2)C1` [Compound 69, (S)-7-(Cyclopropylamino)-5-((4-(3-(methylamino)piperidin-1-yl)-3-(4H-1,2,4-triazol-4-yl)phenyl)amino)pyrazolo[1,5-a]pyrimidine-3-carbonitrile], the “fold decrease in MHV potency” value ([1]; relative to 68) is reported as 3 fold.
With `CCN(CCN)c1ccc(Nc2cc(NC3CC3)n3ncc(C#N)c3n2)cc1-n1cnnc1` [Compound 53, 5-((4-((2-Aminoethyl)(ethyl)amino)-3-(4H-1,2,4-triazol-4-yl)phenyl)amino)-7-(cyclopropylamino)pyrazolo[1,5-a]pyrimidine-3-carbonitrile] the “phosphorylation levels of CSNK2 substrate EIF2S2” value [2] was “reduction in phosphorylation levels”, the “cell viability by LDH assay” value [3] was “No decrease in cell viability” and the plasma stability [4] was “stable in plasma”. For the same compound, the “phosphorylation of Ser2 of EIF2S2 in mouse lung” value [5] was “no statistically significant reduction”, the “phosphorylation of Ser129 of AKT in mouse lung” value [6] was “no statistically significant reduction” and the “DYRK1A NanoBRET dose-response occupancy” value [7] was “d Poor assay window observed but no occupancy observed up to 3 μM. n.d. = not determined”. For the same compound, the receptor occupancy at 10 µM [8] was 50 to 75%, the receptor occupancy at 10 µM [9] was 50 to 75% and the receptor occupancy at 10 µM [10] was 50 to 75%. The receptor occupancy at 10 µM [11] was 50 to 75% and the receptor occupancy at 10 µM [12] was 50 to 75%.
With `O=c1nc(NO)ccn1[C@@H]1O[C@H](CO)[C@@H](O)[C@H]1O` [EIDD-1931, reference compound] the IC50 ([1]; read-out: MHV IC50, positive control of the assay) was 1200 nM.
For `N#Cc1cnn2c(NC3CC3)cc(Nc3cccc(-n4cnnc4)c3)nc12` [Compound 14, 5-((3-(4H-1,2,4-Triazol-4-yl)phenyl)amino)-7-(cyclopropylamino)pyrazolo[1,5-a]pyrimidine-3-carbonitrile], the remaining at 0.5 h, 5 μM [13] was 74%, the CLint scaled at 1 h [14] was 7.6 mL/min/kg and the CLint scaled at 2 h, 1 µM [15] was 160 mL/min/kg. For the same compound, the CLint scaled at 2 h, 1 µM [16] was 16 mL/min/kg.
In the case of `CC(=O)Nc1cccc(Nc2cc(NC3CC3)n3ncc(C#N)c3n2)c1` [Compound 3, N-(3-((3-Cyano-7-(cyclopropylamino)pyrazolo[1,5-a]pyrimidin-5-yl)amino)phenyl)acetamide], the remaining at 0.5 h, 5 μM [13] is reported as 22%, the CLint scaled at 1 h [14] is reported as 25 mL/min/kg and the CLint scaled at 2 h, 1 µM [15] is reported as 520 mL/min/kg. It also gave a CLint scaled at 2 h, 1 µM [16] of 58 mL/min/kg.
